{"source": "paper PMC12521615", "about": "“Accurate affinity models for SH2 domains from peptide binding assays and free‐energy regression” (Protein Science : A Publication of the Protein Society, 2025)", "note": "Non-standard residues stand in square brackets, D forms with d. Residues, ends and D or L forms follow the SMILES beside them. pY = N[C@@H](Cc1ccc(OP(=O)(O)O)cc1)C(=O)O"}
{"target": "T1, Fyn SH2 domain (Homo sapiens, UniProt P06241)", "T1 construct": "The human SH2 domains from Fyn (142–248), Lyn (121–228); His6-SUMO (N, cleaved yes); host or cells: Escherichia coli C43(DE3) with BirA helper plasmid", "T1 sequence (P06241 142-248)": "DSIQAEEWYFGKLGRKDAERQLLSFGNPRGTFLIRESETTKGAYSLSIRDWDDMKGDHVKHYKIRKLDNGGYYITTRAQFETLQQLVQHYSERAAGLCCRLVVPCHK", "assay": "biochemical", "format": "binding", "settings": "not given", "from_the_text": "(§1) The human SH2 domains from Fyn (142–248), Lyn (121–228), Blk (116–222), and Yes (150–257) kinases were PCR‐amplified from plasmids encoding the full‐length proteins and cloned using the NEBuilder® HiFi DNA Assembly Master Mix (NEB) in a pET plasmid backbone that was PCR‐amplified with the primers pETXbaI_for and pETXhoI_rev (these and all other primers are defined in Table S7) from the pET‐His6‐SUMO‐Grb2(SH2), as reported before (Li et al., [2023]), thus adding an N‐terminal His6‐SUMO tag and a C‐terminal AviTag® for biotinylation. The SH2 plasmids are available via Addgene: pET28‐His6‐SUMO‐Fyn‐SH2‐AviTag (214202), pET28‐His6‐SUMO‐Blk‐SH2‐AviTag (214204), pET28‐His6‐SUMO‐Lyn‐SH2‐AviTag (214207), pET28‐His6‐SUMO‐Yes‐SH2‐AviTag (214208), and pET28‐His6‐SUMO‐cSrc‐SH2‐AviTag (214230). For expression and parallel biotinylating of the SH2 domain product, Escherichia coli C43(DE3) cells carrying a BirA encoding helper plasmid were transformed with the respective SH2 domain expression construct and plated to grow overnight at 37°C on a streptomycin and kanamycin (100 μg/mL both) LB‐agar plate. The colonies were collected in 10 mL of TB medium and used to inoculate 1 L of TB medium and grown at 37°C and 215 rpm. Upon reaching an OD600 of 0.5, the expression of the SH2 domains was induced by adding IPTG up to 0.5 mM and biotin up to 250 μM, and the expressing culture was incubated at 18°C for 16–18 h. After removing the medium through centrifugation, the cell pellets were snap‐frozen in liquid N2 and stored at −80°C until purification. To purify the biotinylated SH2 domains, the cell pellets were resuspended in lysis buffer (50 mM Tris, pH 7.5, 300 mM NaCl, 20 mM imidazole, 10% glycerol), supplementing them with 2 mM β‐mercaptoethanol and 1× protease inhibitor cocktail before lysis by sonication (Fisherbrand Sonic Dismembrator). The soluble fraction separated after centrifugation at 33,000 g was run on a HisTrap HP column (Cytiva), then washed with 10 CV of the lysis buffer followed by 10 CV of wash buffer (50 mM Tris, pH 7.5, 50 mM NaCl, 10 mM imidazole, 10% glycerol). Next, the protein was eluted with elution buffer (50 mM Tris, pH 7.5, 50 mM NaCl, 250 mM imidazole, 10% glycerol) directly onto a 5 mL HiTrap Q HP anion exchange column (Cytiva). The biotinylated SH2 domain was then eluted from the anion exchange column with an NaCl gradient (50 mM Tris, pH 7.5, 0.05–1 M NaCl, 1 mM TCEP‐HCl), and the His6‐SUMO tag was cleaved using 0.05 mg/mL Ulp1 protease. The biotinylated SH2 domain was then collected in a flowthrough after running the cleavage reaction over a HisTrap HP column. Finally, the biotinylated SH2 domain in the flowthrough was run on a HiLoad 16/600 Superdex 75 pg size exclusion column (Cytiva) in storage buffer (20 mM HEPES, pH 7.5, 150 mM NaCl, 10% glycerol). The purified biotinylated SH2 domains were aliquoted, snap‐frozen in liquid N2, and stored at −80°C.\n(§2) Measured binding constants (K D) from competition mode fluorescence polarization experiments were obtained using the purified SH2 domains used for the selection and chosen sets of peptides with a phosphorylated tyrosine exactly as described previously (Li et al., [2023]). […] (c‐Src SH2 consensus) was used as the probe, and for the Grb2 SH2 domain, the fluorescently labeled peptide FITC‐Ahx‐FDDPS(pY)VNVQN (Ahx = 6‐aminohexanoic acid) from the Y177 phospho‐tyrosine site of BCR. Before performing the competition mode fluorescence polarization measurement, the K D of the probes for the respective SH2 domains was first measured in a direct mode of fluorescence polarization.", "units": {"Kd": "nM"}}
{"compound": "CC[C@H](C)[C@H](NC(=O)[C@@H]1CCCN1C(=O)[C@H](CCC(N)=O)NC(C)=O)C(=O)N[C@@H](Cc1ccccc1)C(=O)N[C@@H](CCC(=O)O)C(=O)NCC(=O)N[C@@H](Cc1ccc(OP(=O)(O)O)cc1)C(=O)N[C@@H](C)C(=O)N[C@@H](CC(C)C)C(=O)N1CCC[C@H]1C(=O)N[C@@H](Cc1c[nH]cn1)C(=O)N[C@@H](C)C(=O)NCC(N)=O", "note": "[ACTA1 pY171] (Ac-QPIFEG[pY]ALPHAG-NH2)", "Kd": 47.3}
{"compound": "CC(=O)N[C@@H](CCC(N)=O)C(=O)N[C@@H](CO)C(=O)N[C@@H](CC(C)C)C(=O)N[C@@H](CCC(=O)O)C(=O)N[C@@H](CCCCN)C(=O)N[C@@H](CO)C(=O)N[C@@H](Cc1ccc(OP(=O)(O)O)cc1)C(=O)N[C@@H](CCC(=O)O)C(=O)N[C@@H](CC(C)C)C(=O)N[C@@H](CC(C)C)C(=O)N[C@@H](CC(=O)O)C(=O)NCC(=O)NCC(N)=O", "note": "[ACTB pY240 P243L] (Ac-QSLEKS[pY]ELLDGG-NH2)", "Kd": 141}
{"compound": "CC[C@H](C)[C@H](NC(=O)CNC(=O)[C@H](CCC(=O)O)NC(=O)[C@@H](NC(=O)[C@H](CCC(N)=O)NC(C)=O)C(C)C)C(=O)N[C@@H](CO)C(=O)N[C@@H](Cc1ccc(OP(=O)(O)O)cc1)C(=O)N[C@@H](CC(=O)O)C(=O)N[C@@H](Cc1ccccc1)C(=O)N[C@H](C(=O)N1CCC[C@H]1C(=O)N[C@H](C(=O)NCC(N)=O)[C@@H](C)O)[C@@H](C)CC", "note": "[CBS pY308 G307S] (Ac-QVEGIS[pY]DFIPTG-NH2)", "Kd": 185}
{"compound": "CC(=O)N[C@@H](CCC(N)=O)C(=O)N[C@@H](CC(C)C)C(=O)N[C@@H](Cc1c[nH]cn1)C(=O)N[C@H](C(=O)N[C@@H](Cc1c[nH]cn1)C(=O)N1CCC[C@H]1C(=O)N[C@@H](Cc1ccc(OP(=O)(O)O)cc1)C(=O)N[C@@H](CCC(=O)O)C(=O)N[C@@H](CCCCN)C(=O)N[C@H](C(=O)N[C@@H](CCC(=O)O)C(=O)N[C@@H](CC(=O)O)C(=O)NCC(N)=O)C(C)C)C(C)C", "note": "[Syn-F-1] (Ac-QLHVHP[pY]EKVEDG-NH2)", "Kd": 30.2}
{"compound": "CSCC[C@H](NC(=O)[C@H](CCC(N)=O)NC(C)=O)C(=O)N[C@@H](CCC(=O)O)C(=O)N[C@@H](CCCCN)C(=O)N[C@@H](Cc1c[nH]cn1)C(=O)N[C@H](C(=O)N[C@@H](Cc1ccc(OP(=O)(O)O)cc1)C(=O)N[C@@H](CCC(=O)O)C(=O)N[C@@H](CO)C(=O)N[C@H](C(=O)N[C@H](C(=O)N[C@@H](CCC(N)=O)C(=O)NCC(N)=O)[C@@H](C)O)C(C)C)C(C)C", "note": "[Syn-F-2] (Ac-QMEKHV[pY]ESVTQG-NH2)", "Kd": 18.3}
{"target": "T1, Fyn SH2 domain", "assay": "biochemical", "format": "binding", "settings": "Table S3, unpaired validation; competition fluorescence polarization; probe FITC-Ahx-GDG-pY-EEISPLLL-NH2 0.4 nM; [SH2] 4.12 nM; mean; read-out: Kd mean", "from_the_text": "as §1, §2", "units": {"Kd": "nM"}}
{"compound": "CC(=O)N[C@@H](CCC(N)=O)C(=O)N[C@@H](CO)C(=O)N[C@@H](CC(C)C)C(=O)N[C@@H](CCC(=O)O)C(=O)N[C@@H](CCCCN)C(=O)N[C@@H](CO)C(=O)N[C@@H](Cc1ccc(OP(=O)(O)O)cc1)C(=O)N[C@@H](CCC(=O)O)C(=O)N[C@@H](CC(C)C)C(=O)N1CCC[C@H]1C(=O)N[C@@H](CC(=O)O)C(=O)NCC(=O)NCC(N)=O", "note": "[ACTB pY240] (Ac-QSLEKS[pY]ELPDGG-NH2)", "Kd": 159}
{"compound": "CC[C@H](C)[C@H](NC(=O)CNC(=O)[C@H](CCC(=O)O)NC(=O)[C@@H](NC(=O)[C@H](CCC(N)=O)NC(C)=O)C(C)C)C(=O)NCC(=O)N[C@@H](Cc1ccc(OP(=O)(O)O)cc1)C(=O)N[C@@H](CC(=O)O)C(=O)N[C@@H](Cc1ccccc1)C(=O)N[C@H](C(=O)N1CCC[C@H]1C(=O)N[C@H](C(=O)NCC(N)=O)[C@@H](C)O)[C@@H](C)CC", "note": "[CBS pY308] (Ac-QVEGIG[pY]DFIPTG-NH2)", "Kd": 126}
{"compound": "CC[C@H](C)[C@H](NC(=O)[C@H](CC(C)C)NC(=O)[C@H](CO)NC(=O)[C@H](Cc1ccc(OP(=O)(O)O)cc1)NC(=O)[C@H](CCCNC(=N)N)NC(=O)[C@H](CCCNC(=N)N)NC(=O)[C@H](CCC(N)=O)NC(=O)[C@H](CC(=O)O)NC(=O)[C@H](CO)NC(=O)[C@H](CCC(N)=O)NC(C)=O)C(=O)N[C@@H](CC(=O)O)C(=O)N1CCC[C@H]1C(=O)NCC(N)=O", "note": "[CLIP2 pY972 R977P] (Ac-QSDQRR[pY]SLIDPG-NH2)", "Kd": 27}
{"compound": "CC[C@H](C)[C@H](NC(=O)[C@H](CC(C)C)NC(=O)[C@H](CO)NC(=O)[C@H](Cc1ccc(OP(=O)(O)O)cc1)NC(=O)[C@H](CCCNC(=N)N)NC(=O)[C@H](CCCNC(=N)N)NC(=O)[C@H](CCC(N)=O)NC(=O)[C@H](CC(=O)O)NC(=O)[C@H](CO)NC(=O)[C@H](CCC(N)=O)NC(C)=O)C(=O)N[C@@H](CC(=O)O)C(=O)N[C@@H](CCCNC(=N)N)C(=O)NCC(N)=O", "note": "[CLIP2 pY972] (Ac-QSDQRR[pY]SLIDRG-NH2)", "Kd": 78.5}
